Patent publication US20090131484A1, “PREVENTIVE OR REMEDY FOR BOWEL DISEASE” (ASTELLAS PHARMA INC, priority 2005, published 2009)

Legend:
[1] = tested on: cholera toxin-induced intestinal hypersecretion; settings: mouse, in vivo; for effect on cholera toxin-induced intestinal hypersecretion: iv, 1 mg/kg
antigen-induced diarrhea = assay: Mouse antigen-induced diarrheal model; assay type: in vivo; settings: Balb/c mice, OVA
Method: Balb/c female mice were used in this test. The animals were immunized through intraperitoneal administration of 50 μg of ovalbumin (OVA) and 1 mg of aluminium gel (alum), and after 2 weeks from the first immunization, they were again immunized under the same condition. […] The diarrheal condition was checked 1 hour after the OVA administration.

[2] = tested on: TNBS-induced chronic colitis; assay: Rat TNBS-induced chronic colitis model; settings: Wistar rats
[3] = tested on: restrictive stress-induced diarrhea; assay: Rat stress-induced diarrheal model; assay type: in vivo; settings: Wister rats
Method: Wister male rats were used in this test. The animals were restrained in individual restrictive cages for 4 hours and given stress thereby to have diarrhea. […] Each group consisted of 19 to 20 animals. The statistical pharmaceutical potency analysis of the test compound was attained as a significant chi-square test, and its multiplicity was corrected by Bonferroni multiple comparison.

[4] = tested on: oxazolone-induced acute colitis; assay: Rat oxazolone-induced acute colitis model; settings: DA rats
T84 cells = assay: Chloride-dependent short circuit current (Isc) in human intestinal epithelial cells, Ussing system; assay type: cell-based; settings: for effect on forskolin-induced Isc increase: forskolin 10 μM; for effect on thapsigargin-induced continuous Isc increase / effect on transient Isc increase seen before the sustained Isc increase: thapsigargin 1 μM
Method: It is known that water secretion from epithelial cells is correlated with chloride ion secretion, and the effect to water secretion from epithelial cells may be evaluated through chloride-dependent current measurement.
T84 cells, a human colon epithelial cell-derived cell line, were purchased from American Type Culture Collection (ATCC, USA). T84 cells (3×10^5 cells/well) were cultured on a polyethylenic mesh insert (Transwell® by Corning, USA)) on a 6-well microplate for 10 to 12 days. As the culture medium, 5% bovine calf serum-containing DMEM/F-12 (Gibco, USA) was used. The cultured T84 cells were set in the sample chamber of an Ussing short-circuit current measuring system, and the chloride-dependent short circuit current (Isc) was measured. Isc was induced by adding thapsigargin (1 μM) or forskolin (10 μM) to the T84 cell monolayer specimen at its top on the membrane side thereof. […] In each test, the data obtained by DPC addition were taken as chloride-dependent Isc base line data, and the effect of each test compound was revised.

Structure (SMILES): CN1C2CCCC1CC(NC(=O)c1nn(C)c3ccccc13)C2 (centres unmarked) [Gra, granisetron, reference compound]
- effect on cholera toxin-induced intestinal hypersecretion [1]: effective

Structure (SMILES): CN(C)C(=O)C(CCN1CCC(O)(c2ccc(Cl)cc2)CC1)(c1ccccc1)c1ccccc1 [Lop, loperamide, reference compound]
- effect on cholera toxin-induced intestinal hypersecretion [1]: effective

Structure (SMILES): C[C@]12C=CC(=O)C=C1CC[C@@H]1[C@@H]2[C@@H](O)C[C@@]2(C)[C@H]1CC[C@]2(O)C(=O)CO [Pred, prednisolone, reference compound]
- effect on antigen-induced diarrhea (diarrheal symptom) (antigen-induced diarrhea; 10 mg/kg po 1 hour before OVA): almost completely inhibited

Structure (SMILES): O=C(O)c1cc(/N=N/c2ccc(S(=O)(=O)Nc3ccccn3)cc2)ccc1O [SSZ, sulfasalazine, reference compound]
- effect on TNBS-induced colitis model ([2]; 100 mg/kg po once a day): showed a relieving effect
- effect relative to that of the compound A (weaker) ([2]; TNBS colitis): 1/500

Structure (SMILES): Cc1cc(C)c(C(=O)Nc2ccc(-n3nc(C(F)(F)F)cc3C(F)(F)F)cc2)cn1 [compound A, 4,6-Dimethyl-4′-[3,5-bis(trifluoromethyl)-1H-pyrazol-1-yl]nicotinanilide]
- effect on MPO activity exacerbation ([2]; 0.3 mg/kg po once a day): inhibition of MPO activity exacerbation
- effect on diarrheal symptom ([2]; 0.3 mg/kg po once a day): diarrheal symptom relief
- effect on intestinal tissue weight increase ([2]; 0.3 mg/kg po once a day): inhibition of intestinal tissue weight increase
- effect on disease activity index ([2]; 0.3 mg/kg po once a day, 15 days after colitis induction): significant improvement effect
- effect on cholera toxin-induced intestinal hypersecretion (ileal loop weight per unit length) ([1]; po): dose-dependently inhibited
- oral dose at which inhibition of cholera toxin-induced intestinal hypersecretion was significant ([1]; po): ≥ 0.3 mg/kg
- effect on incidence rate of antigen-induced diarrhea (antigen-induced diarrhea; 3 or 10 mg/kg po 1 hour before OVA): dose-dependently inhibited
- effect on incidence rate of restrictive stress-induced diarrhea ([3]; 10 mg/kg oral administration group): significant inhibition
- effect on incidence rate of restrictive stress-induced diarrhea ([3]; 1.0 or 10 mg/kg po 24 hours and 1 hour before 4 hours restraint): dose-dependently inhibited
- effect on diarrheal symptom ([4]; at least 0.1 mg/kg oral administration): almost completely inhibited
- effect on MPO activity promotion ([4]; oral 0.1, 1.0 or 10 mg/kg): MPO activity promotion inhibition
- effect on diarrheal symptom ([4]; oral 0.1, 1.0 or 10 mg/kg): diarrheal symptom relief
- effect on intestinal tissue weight increase ([4]; oral 0.1, 1.0 or 10 mg/kg): intestinal tissue weight increase inhibition
- effect on disease activity index ([4]; oral 0.1, 1.0 or 10 mg/kg, 24 hours after colitis onset): significant improvement effect
- dose for diarrhea-inhibiting effect relative to dose for colitis symptom relieving effect ([4]; oxazolone colitis): about 1/100
- effect on forskolin-induced Isc increase (T84 cells): dose-dependently inhibited
- effect on thapsigargin-induced continuous Isc increase (T84 cells): inhibited
- effect on transient Isc increase seen before the sustained Isc increase (T84 cells): did not affect

Structure (SMILES): Clc1ccc(COC(Cn2ccnc2)c2ccc(Cl)cc2Cl)cc1 (centres unmarked) [econazole, reference compound]
- effect on forskolin-induced Isc increase (T84 cells): dose-dependently inhibited
- effect on thapsigargin-induced continuous Isc increase (T84 cells): inhibited
- effect on transient Isc increase seen before the sustained Isc increase (T84 cells): did not affect
